From US20130052381A1, “POLYEPOXIDES AND EPOXY RESINS AND METHODS FOR THE MANUFACTURE AND USE THEREOF” (priority 2011, published 2013)

Assays:
[1] = molecular target: recombinant human estradiol receptors (rhER) beta 1 (β1) (Homo sapiens, UniProt Q92731); assay: competitive radioligand binding assay, rhER beta 1; conditions: at as high as […]10^−4 molar concentration
[2] = molecular target: T1, recombinant human estradiol receptors (rhER) alpha (α) (Homo sapiens, UniProt P03372); assay: competitive radioligand binding assay, rhER alpha; conditions: at as high as […]10^−4 molar concentration
T1 sequence (P03372 1-595): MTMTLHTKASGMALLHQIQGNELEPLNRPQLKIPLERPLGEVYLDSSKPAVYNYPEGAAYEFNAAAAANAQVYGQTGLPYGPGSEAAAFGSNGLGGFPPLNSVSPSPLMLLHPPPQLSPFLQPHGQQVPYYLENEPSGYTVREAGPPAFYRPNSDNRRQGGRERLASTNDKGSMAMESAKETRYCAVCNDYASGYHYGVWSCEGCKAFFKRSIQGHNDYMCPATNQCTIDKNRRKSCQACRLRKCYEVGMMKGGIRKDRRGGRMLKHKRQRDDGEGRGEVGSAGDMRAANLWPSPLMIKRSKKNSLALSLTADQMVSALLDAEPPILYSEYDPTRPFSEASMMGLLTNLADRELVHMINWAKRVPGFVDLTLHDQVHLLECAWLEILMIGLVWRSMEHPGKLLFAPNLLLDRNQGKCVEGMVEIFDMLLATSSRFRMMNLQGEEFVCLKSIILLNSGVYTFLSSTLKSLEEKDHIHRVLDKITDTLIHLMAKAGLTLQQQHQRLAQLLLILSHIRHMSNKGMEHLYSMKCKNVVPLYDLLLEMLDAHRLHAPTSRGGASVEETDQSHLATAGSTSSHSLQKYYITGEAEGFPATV

| Compound | estradiol displacement at the beta estradiol receptor [1] | estradiol displacement at the alpha estradiol receptor [2] |
| --- | --- | --- |
| O=C1c2ccccc2C(c2ccc(O)cc2)(c2ccc(O)cc2)N1c1ccccc1 [Example 4, N-Phenyl Phenolphthalein Bisphenol] | no detectible estradiol displacement | no detectible estradiol displacement |
| Oc1cccc(O)c1 [Example 5, Resorcinol] | no detectible estradiol displacement | no detectible estradiol displacement |
| CC(C)(C)c1cc(O)c(C(C)(C)C)cc1O [Example 8, Di t-Butyl Hydroquinone] | no displacement | no displacement |
| Cc1cc(O)ccc1O [Example 9, Methyl Hydroquinone] | no alpha or beta estradiol displacement | – |
| Biphenol [Example 7] | – | no displacement |
